This is an account of results in patent US6294580A, “Substituted 4-hydroxy-phenylalcanoic acid derivatives with agonist activity to PPAR-gamma” (Glaxo Wellcome Inc., priority 1996, dated 2001).

Where a name gives a salt, the structure may show the parent alone. Read-outs that look alike come from different tables or passages of the source.

One experiment deals with PPARg. Description: PPARgamma Transient Cotransfection Assay. The experiment is classed as cell-based. Conditions: CAT reporter, read-out: PPARg EC50.
In a further experiment the target is T1, hPPARgamma (Homo sapiens, UniProt P37231).
T1 construct: 10x-histidine tag (N); made in house; host or cells: E. coli
T1 sequence (P37231 195-475 isoform P37231-2): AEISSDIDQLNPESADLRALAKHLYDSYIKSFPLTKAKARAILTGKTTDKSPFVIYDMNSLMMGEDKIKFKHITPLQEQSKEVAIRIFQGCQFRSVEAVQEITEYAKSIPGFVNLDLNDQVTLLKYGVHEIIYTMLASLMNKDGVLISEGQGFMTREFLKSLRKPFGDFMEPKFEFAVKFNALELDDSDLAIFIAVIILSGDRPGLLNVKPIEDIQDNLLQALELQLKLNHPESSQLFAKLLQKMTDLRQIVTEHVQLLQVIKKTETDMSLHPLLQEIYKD
The experiment in a line: hPPARgamma Ligand Binding Assay.

Where [1] appears, read: PPARg Ki, competition with [3H]-BRL 49,653, room temperature 2 hrs.
The mark [2] stands for this setting: read-out: PPARg Ki; competition with [3H]-BRL 49,653, room temperature 2 hrs.

Procedure for hPPARgamma: 2. hPPARgamma Ligand Binding Assay: The PPAR-gamma ligand binding domain (amino acids 195-475) was expressed with an N-terminal 10×-histidinetag in E. coli cells. The cells were lysed and receptor was purified by means of the epitope tag. The stock solution of protein was diluted to 200 nM in assay buffer (50 mM Tris, 50 mM KCl, pH 8 20 mM CHAPS, 2 mM EDTA 10 mM DTT (Fresh)) just before use.
Test compounds were prepared as 6 mM stock solutions in DMSO. […] The right-most column of wells was used for controls. […] Plates were incubated at room temperature for 2 hrs, and then cooled on ice for 30 minutes. 50 uL samples from each well of a single test plate were simultaneously loaded onto an equilibrated AGTC 96 well gel filtration block (Advanced Genetics Technology Corp.) using a Zymak Rapidplate automated pipettor. The block was placed on top of a clean microtiter plate and centrifuged @1,100×g for 4 min. 200 uL of scintillation fluid was added to each well, the plates were sealed and allowed to equilibrate for at least 4 hours before counting in a Wallac 1250 Microbeta counter.
Ki's were determined from a nonlinear least squares fit of the data to a simple competitive binding model.

Take `COC(=O)c1ccccc1N[C@@H](Cc1ccc(OCCc2nc(-c3ccccc3)sc2C)cc1)C(=O)O` [Example 45, 2-(1-Carboxy-2-{4-[2-(5-methyl-2-phenyl-thiazol-4-yl)-ethoxy]-phenyl}-ethylamino)-benzoic acid methyl ester]: the EC50 in the experiment with PPARg is 1 nM. This molecule also yielded a Ki at hPPARgamma (setting [1]) of 30 nM.

As for `COC(=O)c1ccccc1N[C@@H](Cc1ccc(OCCSc2ccc(Cl)cc2)cc1)C(=O)O` [Example 46, 2-(1-Carboxy-2-{4-[2-(4-clhorophenylsulfanyl)-ethoxy]-phenyl}-ethylamino)-benzoic acid methyl ester], the EC50 with PPARg was 900 nM. Also, the Ki at hPPARgamma (setting [1]) was determined as 750 nM.

As for `COC(=O)c1ccccc1N[C@@H](Cc1ccc(OC[C@@H]2CCCN2c2ccc([N+](=O)[O-])cc2)cc1)C(=O)O` [Example 47, 2-(1-Carboxy-2-{4-[1-(4-nitro)-phenyl-pyrrolidin-2-ylmethoxy]-phenyl}-ethylamino)-benzoic acid methyl ester], in the experiment on PPARg, the EC50 was determined as 50 nM. Also, affinity at hPPARgamma (setting [1]) was put at a Ki of 240 nM.

Take `CN(CCOc1ccc(CC(Nc2ccccc2C(=O)C2CCCC2)C(=O)O)cc1)c1nc2ccccc2o1` (centres unmarked) [Example 48, 3-{4-[2-(Benzoxazol-2-yl-methyl-amino)-ethoxy]-phenyl}-2-(2-cyclopentanecarbonyl-phenylamino)-propionic acid]: in the experiment with PPARg, the EC50 came out at 20 nM. In addition, the Ki at hPPARgamma (setting [1]) was determined as 115 nM.

On to `CN(CCOc1ccc(CC(Nc2ccccc2C(=O)C2CCCCCC2)C(=O)O)cc1)c1nc2ccccc2o1` (centres unmarked) [Example 49, 3-{4-[2-(Benzoxazol-2-yl-methyl-amino)-ethoxy]-phenyl}-2-(2-cycloheptanecarbonyl-phenylamino)-propionic acid], for which the EC50 in the experiment on PPARg was determined as 10 nM. In addition, the inhibition constant (Ki) at hPPARgamma (setting [1]) came out at 80 nM.

`CN(CCOc1ccc(CC(Nc2cc(F)ccc2C(=O)C2CCCCC2)C(=O)O)cc1)c1nc2ccccc2o1` (centres unmarked) [Example 50, 3-{4-[2-(Benzoxazol-2-yl-methyl-amino)-ethoxy]-phenyl}-2-(2-cyclohexanecarbonyl-5-fluoro-phenylamino)-propionic acid]: the EC50 with PPARg amounted to 50 nM. On hPPARgamma (setting [1]), the inhibition constant Ki turned out to be 390 nM.

As to `CN(CCOc1ccc(CC(Nc2c(C(=O)C3CCCCC3)cnn2C)C(=O)O)cc1)c1nc2ccccc2o1` (centres unmarked) [Example 51, 3-{4-[2-(Benzoxazol-2-yl-methyl-amino)-ethoxy]-phenyl}-2-(4-cyclohexanecarbonyl-2-methyl-2H-pyrazol-3-ylamino)-propionic acid], the EC50 with PPARg was determined as 350 nM. At hPPARgamma (setting [1]), the inhibitory constant (Ki) came out at 140 nM.

Take `CN(CCOc1ccc(CC(Nc2sccc2C(=O)c2ccccc2)C(=O)O)cc1)c1nc2ccccc2o1` (centres unmarked) [Example 52, 3-{4-[2-(Benzoxazol-2-yl-methyl-amino)-ethoxy]-phenyl}-2-(3-benzoyl-thiophene-2-ylamino)-propionic acid]: the concentration giving a half-maximal response (EC50) in the experiment on PPARg is 80 nM. In addition, the Ki on hPPARgamma (setting [1]) is 100 nM.

Take `O=C(c1ccccc1)c1ccccc1NC(Cc1ccc(OC2CCN(c3nc4ccccc4o3)C2)cc1)C(=O)O` (centres unmarked) [Example 55, 3-[4-(1-Benzoxazol-2-yl-pyrrolidin-3-yloxy)-phenyl]-2-(2-benzoyl-phenylamino)-propionic acid]: the EC50 in the experiment with PPARg was found to be 460 nM. In addition, the Ki at hPPARgamma (setting [1]) is 1400 nM.

As to `Cc1oc(-c2ccccc2)nc1CCOc1ccc(C[C@H](Nc2ccccc2C(=O)c2ccncc2)C(=O)O)cc1` [Example 56, 3-{4-[2-(5-Methyl-2-phenyl-oxazol-4-yl)-ethoxy]-phenyl}-2(S)-[2-(pyridine-4-carbonyl)-phenylamino]-propionic acid], in the experiment on PPARg, the half-maximal effective concentration (EC50) amounted to 1 nM. For the same molecule, on hPPARgamma (setting [1]), affinity was put at a Ki of 10 nM.

Regarding `Cc1oc(-c2ccccc2)nc1CCOc1ccc(C[C@H](Nc2ccccc2C(=O)c2cc[n+]([O-])cc2)C(=O)O)cc1` [Example 57, 3-{4-[2-(5-methyl-2-phenyl-oxazol-4-yl)-ethoxy]-phenyl}-2(S)-[2-(pyridineN-oxide-4-carbonyl)-phenylamino]-propionic acid], the EC50 with PPARg is 150 nM. Besides, the Ki at hPPARgamma (setting [1]) was 1240 nM.

On to `Cc1oc(-c2ccccc2)nc1CCOc1ccc(C[C@H](Nc2ccccc2C(=O)c2cccnc2)C(=O)O)cc1` [Example 58, 3-{4-[2-(5-Methyl-2-phenyl-oxazol-4-yl)-ethoxy]-phenyl}-2(S)-[2-(pyridine-3-carbonyl)-phenylamino]-propionic acid], for which the concentration for a half-maximal effect (EC50) with PPARg stood at 1 nM. At hPPARgamma (setting [1]), this molecule gave a Ki of 30 nM.

For `Cc1oc(-c2ccccc2)nc1CCOc1ccc(C[C@H](Nc2ccccc2C(=O)c2ccc[n+]([O-])c2)C(=O)O)cc1` [Example 59, 3-{4-[2-(5-methyl-2-phenyl-oxazol-4-yl)-ethoxy]-phenyl}-2(S)-[2-(pyridine-N-oxide-3-carbonyl)-phenylamino]-propionic acid], in the experiment on PPARg, the EC50 amounted to 95 nM. For the same molecule, the Ki at hPPARgamma (setting [1]) is 100 nM.

Turning to `O=C(c1ccccc1)c1ccccc1N[C@@H](Cc1ccc(OC[C@@H]2CCCN2c2ccccn2)cc1)C(=O)O` [Example 61, 2S-(2-benzoyl-phenylamino)-3-[4-(1-pyridin-2-yl-pyrrolidin-2S-yl-methoxy)-phenyl]-propionic acid], in the experiment on PPARg, the EC50 turned out to be 15 nM. Further, on hPPARgamma (setting [1]), the affinity corresponds to a Ki of 10 nM.

On to `Cc1cc(-c2ccco2)nn1CCOc1ccc(C[C@H](Nc2ccccc2C(=O)c2ccccc2)C(=O)O)cc1` [Example 63, 2S-(2-benzoyl-phenylamino)-3-{4-[2-(3-furan-2-yl-5-methyl-pyrazol-1-yl)-ethoxy]-phenyl}-propionic acid], for which the EC50 in the experiment with PPARg worked out at 20 nM. For the same molecule, affinity on hPPARgamma (setting [1]) was put at a Ki of 30 nM.

In the case of `COC(=O)c1ccccc1N[C@@H](Cc1ccc(OCCOc2ccc([N+](=O)[O-])cn2)cc1)C(=O)O` [Example 69], in the experiment on PPARg, the half-maximal effective concentration (EC50) stood at 100 nM. Further, on hPPARgamma (setting [2]), the Ki worked out at 290 nM.

Consider `COC(=O)c1ccccc1N[C@@H](Cc1ccc(OCCSc2ccc(Cl)cn2)cc1)C(=O)O` [Example 70], for which the EC50 with PPARg worked out at 200 nM. At hPPARgamma (setting [2]), the Ki amounted to 250 nM.

For the molecule `O=C(c1ccccc1)c1ccccc1N[C@@H](Cc1ccc(OC[C@@H]2CSCN2c2nc3ccccc3o2)cc1)C(=O)O` [Example 72, 3-[4-(3-Benzoxazol-2-yl-thiazolidin-4(R)-ylmethoxy)-phenyl]-2(S)-(2-benzoyl-phenylamino)-propionic acid], in the experiment with PPARg, the EC50 turned out to be 5 nM. The same molecule registered a Ki on hPPARgamma (setting [1]) of 30 nM.

For `CN(CCOc1ccc(CC(Nc2ccccc2C(=O)c2ccc(C(F)(F)F)cc2)C(=O)O)cc1)c1nc2ccccc2o1` (centres unmarked) [Example 73], the EC50 with PPARg worked out at 25 nM. For the same molecule, at hPPARgamma (setting [1]), the Ki worked out at 115 nM.

On to `CN(CCOc1ccc(CC(Nc2ccccc2C(=O)c2cccs2)C(=O)O)cc1)c1nc2ccccc2o1` (centres unmarked) [Example 74], for which the EC50 in the experiment with PPARg came out at 55 nM. In addition, the Ki at hPPARgamma (setting [1]) turned out to be 800 nM.

On to `CN(CCOc1ccc(CC(Nc2ccccc2C(=O)c2ccsc2)C(=O)O)cc1)c1nc2ccccc2o1` (centres unmarked) [Example 75], for which the EC50 in the experiment with PPARg was 100 nM. Also, the Ki at hPPARgamma (setting [1]) is 75 nM.

As for `CN(CCOc1ccc(CC(Nc2ccccc2C(=O)c2cccc(C(F)(F)F)c2)C(=O)O)cc1)c1nc2ccccc2o1` (centres unmarked) [Example 76], the EC50 in the experiment with PPARg turned out to be 10 nM. In addition, the affinity on hPPARgamma (setting [1]), expressed as Ki, was 110 nM.

Turning to `CN(CCOc1ccc(CC(Nc2ccccc2C(=O)c2ccccc2C(F)(F)F)C(=O)O)cc1)c1nc2ccccc2o1` (centres unmarked) [Example 77], the EC50 in the experiment with PPARg was found to be 65 nM. For the same molecule, the affinity at hPPARgamma (setting [1]) corresponds to a Ki of 155 nM.

As for `COc1cccc(C(=O)c2ccccc2NC(Cc2ccc(OCCN(C)c3nc4ccccc4o3)cc2)C(=O)O)c1` (centres unmarked) [Example 78], the EC50 with PPARg is 200 nM. Besides, on hPPARgamma (setting [1]), affinity was put at a Ki of 40 nM.

Take `COc1ccccc1C(=O)c1ccccc1NC(Cc1ccc(OCCN(C)c2nc3ccccc3o2)cc1)C(=O)O` (centres unmarked) [Example 79]: in the experiment on PPARg, the EC50 turned out to be 30 nM. For the same molecule, the Ki on hPPARgamma (setting [1]) came to 50 nM.

Regarding `Cc1cccc(C(=O)c2ccccc2NC(Cc2ccc(OCCN(C)c3nc4ccccc4o3)cc2)C(=O)O)c1` (centres unmarked) [Example 80], in the experiment on PPARg, the 50% effective concentration (EC50) turned out to be 10 nM. The Ki on hPPARgamma (setting [1]) came out at 10 nM.

For the molecule `Cc1oc(-c2ccccc2)nc1CCOc1ccc(CC(Nc2ccccc2C(=O)c2ccc(CN(C)C)cc2)C(=O)O)cc1` (centres unmarked) [Example 81, 2-[2-(4-dimethylaminomethyl-benzoyl)-phenylamino]-3-{4-[2-(5-methyl-2-phenyl-oxazol-4-yl)-ethoxy]-phenyl}-propionic acid hydrochloride], in the experiment on PPARg, the 50% effective concentration (EC50) worked out at 400 nM. In addition, the Ki at hPPARgamma (setting [1]) stood at 130 nM.

In the case of `Cc1oc(-c2ccccc2)nc1CCOc1ccc(CC(Nc2ccccc2C(=O)c2ccc(CN)cc2)C(=O)O)cc1` (centres unmarked) [Example 82, 2-[2-(4-aminomethyl-benzoyl)-phenylamino]-3-{4-[2-(6-methyl-2-phenyl-oxazol-4-yl)-ethoxy]-phenyl}-propionic acid hydrochloride], in the experiment with PPARg, the concentration giving a half-maximal response (EC50) was determined as 25 nM. Also, the affinity at hPPARgamma (setting [1]), expressed as Ki, was 65 nM.

In the case of `Cc1cccc(C)c1C(=O)c1ccccc1NC(Cc1ccc(OCCN(C)c2nc3ccccc3o2)cc1)C(=O)O` (centres unmarked) [Example 83], in the experiment on PPARg, the concentration for a half-maximal effect (EC50) stood at 165 nM. The molecule further registered a Ki at hPPARgamma (setting [1]) of 350 nM.

Regarding `Cc1oc(-c2ccccc2)nc1CCOc1ccc(CC(Nc2ccccc2C(=O)c2cccc(CN)c2)C(=O)O)cc1` (centres unmarked) [Example 86, 2-[2-(3-aminomethyl-benzoyl)-phenylamino]-3-{4-[2-(5-methyl-2-phenyl-oxazol-4-yl)-ethoxy]-phenyl}-propionic acid hydrochloride], the EC50 in the experiment with PPARg came to 30 nM. Besides, the Ki at hPPARgamma (setting [1]) worked out at 650 nM.

With `Cc1oc(-c2ccccc2)nc1CCOc1ccc(CC(Nc2ccccc2C(=O)c2cccc(CN(C)C)c2)C(=O)O)cc1` (centres unmarked) [Example 87, 2-[2-(3-dimethylaminomethyl-benzoyl)-phenylamino]-3-{4-[2-(5-methyl-2-phenyl-oxazol-4-yl)-ethoxy]-phenyl}-propionic acid hydrochloride], in the experiment on PPARg, the concentration giving a half-maximal response (EC50) was determined as 465 nM. For the same molecule, the Ki at hPPARgamma (competition with [3H]-BRL 49,653, room temperature 2 hrs; read-out: PPARg Ki) is 1160 nM.
